Values of other authors in PMC6156206 (Molecular Imaging, 2018).

Tests used:
[1] = phase 1/1b safety profile analysis
[2] = tested on: BRAF^V600E-mutant melanoma xenografts; details: oral, 30-100 mg/kg, twice daily, without any adverse effects

Row | Compound | Tolerable dose in patients [1] | Antitumor effect in xenografts [2] | Substrate for the drug efflux transporter system P-gp/BCRP (P-gp/BCRP)
1 | COc1cc2ncnc(Oc3cccc(NC(=O)Nc4cc(C(C)(C)C(F)(F)F)on4)c3)c2cc1OC.Cl [CEP-32496, 1-(3-(6,7-dimethoxyquinazolin-4-yloxy)phenyl)-3-(5-(1,1,1-trifluoro-2-methylpropan-2-yl)isoxazol-3-yl)urea hydrochloride] | up to 350 mg/d | tumor stasis and regression | –
2 | CNC(=O)c1cc(Oc2ccc(NC(=O)Nc3ccc(Cl)c(C(F)(F)F)c3)cc2)ccn1 [sorafenib] | – | – | substrate for the drug efflux transporter system P-gp/BCRP
